Measured values as given in PubChem BioAssay (NCI).
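Method: 48-hour compound exposure of cells in 96-well plates, five concentrations, linear interpolation of endpoints. TGI denotes the concentration required for complete inhibition of growth.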

Assays:
Experiment in all cases: inhibition of tumour cell growth, NCI panel, 48 h
BT-549 breast = test system: BT-549 breast
CAKI-1 renal = test system: CAKI-1 renal
DU-145 prostate = test system: DU-145 prostate
HOP-92 NSCLC = test system: HOP-92 NSCLC
K-562 leukemia = test system: K-562 leukemia
MOLT-4 leukemia = test system: MOLT-4 leukemia
NCI-H23 lung = test system: NCI-H23 lung
OVCAR-3 ovarian = test system: OVCAR-3 ovarian
OVCAR-5 ovarian = test system: OVCAR-5 ovarian
SNB-19 CNS = test system: SNB-19 CNS
SR leukemia = test system: SR leukemia

Row | Structure (SMILES) | TGI (BT-549 breast) [µM] | TGI (CAKI-1 renal) [µM] | TGI (DU-145 prostate) [µM] | TGI (HOP-92 NSCLC) [µM] | TGI (K-562 leukemia) [µM] | TGI (MOLT-4 leukemia) [µM] | TGI (NCI-H23 lung) [µM] | TGI (OVCAR-3 ovarian) [µM] | TGI (OVCAR-5 ovarian) [µM] | TGI (SNB-19 CNS) [µM] | TGI (SR leukemia) [µM]
1 | S=C(Nc1ccc2c(c1)Cc1ccccc1-2)Nc1ccc2c(c1)Cc1ccccc1-2 | > 100 | > 100 | > 100 | > 100 | 74.5 | 39.5 | > 100 | > 100 | > 100 | > 100 | 
2 | C[n+]1c(-c2ccc(/C=N/Nc3ccnc(N/N=C/c4ccc(-c5cn6ccccc6[n+]5C)cc4)n3)cc2)cn2ccccc21 |  |  |  |  |  | > 100 |  |  | > 100 | > 100 | > 100
3 | CC(=O)[C@H]1CCC2[C@@H]3CC=C4C(O)C(OS(=O)(=O)O)CC[C@]4(C)C3CC[C@@]21C (stereo not given in full) |  | > 100 |  | > 100 | > 100 | > 100 | > 100 | > 100 | > 100 | > 100 | 
4 | O=C(O)CCCc1ccc2c(c1)CC1(C2)Cc2ccc(CCCC(=O)O)cc2C1 |  |  |  | > 100 | > 100 | > 100 | > 100 | > 100 | > 100 |  | > 100
5 | Cc1ccc([N+](=O)[O-])cc1NC(=O)C(=O)C1CCC2=C(Sc3ccccc3N2)C1=O (stereo not given) | > 100 | > 100 | > 100 | > 100 |  | > 100 | > 100 | 90.8 | > 100 | > 100 | 
6 | CC1(C)Oc2ccc3c(=O)c4ccccc4oc3c2C1C(=O)O (stereo not given) | > 100 | > 100 | > 100 |  | > 100 | > 100 | > 100 | > 100 | > 100 |  | 
7 | C=C(C(=O)OC)[C@H]1CC/C(C)=C/CC/C(C)=C/CC[C@@]2(C)O[C@@H]2C1 |  | 28.1 | 58.2 | 35.1 | 25.7 | 35.5 | 68.1 | 34.4 | 48.2 | > 100 | 
8 | C=C1C(=O)O[C@H]2C3C(=C(C)CC[C@@H]12)C(=O)[C@@H]1OC31C (stereo not given in full) | 4.6 | 7.9 | 25.8 | 10.7 | 5.35 | 3.27 | 6.4 | 4.38 | 23.3 | 29.5 | 
9 | CCCCCCCCCCCCCCCCNc1ccn(C2CC(OP(=O)(O)OCC3OC(n4cc(CC)c(=O)[nH]c4=O)CC3O)C(CO)O2)c(=O)n1 (stereo not given) |  | > 100 | > 100 | > 100 | 44.9 | 41.3 | > 100 | > 100 | 62.8 | 31.7 | 47.2
10 | CC1(C)CC2(C)OC(=N)C1(C#N)C2(C#N)C#N (stereo not given) |  | 12.3 | 27.7 | 10.5 | 33.5 | 38.1 | 21.4 |  | 27.3 | 31 | 
11 | c1ccc(COc2cccc3cccnc23)cc1 |  |  |  | > 100 | > 100 | > 100 | > 100 | > 100 | > 100 | > 100 | 
12 | O=C(C=P(c1ccccc1)(c1ccccc1)c1ccccc1)c1ccc(-c2ccc(F)cc2F)cc1 |  | 5.55 | 16.2 | 7.24 | 5.31 |  | 12.2 | 5.19 | 9.29 | 20.6 | 7.55
13 | O=C(NC/C=C/Br)NC1CCNc2ccccc21 (stereo not given) |  | > 100 | > 100 |  | > 100 | 95.4 | 55.4 | > 100 | > 100 | > 100 | 61.8
14 | O=c1/c(=C/c2ccc(-c3ccc(Cl)cc3Cl)o2)sc2n1[C@@H](c1ccc3c(c1)OCO3)C=C(c1cc(F)c(Cl)cc1Cl)N=2 | > 100 | > 100 | > 100 | 95.5 | > 100 | > 100 | > 100 |  | > 100 | 95.4 | 
15 | c1ccc(CNc2ncnc3n[nH]nc23)cc1 |  | > 100 | > 100 | > 100 | > 100 | > 100 | > 100 | > 100 | > 100 | > 100 | 
16 | C=C1CC(OC)(C(O)C(=O)N[C@H]2OCO[C@H]3C2O[C@H](C[C@H](O)COC)C(C)(C)C3OC)O[C@H](C)[C@@H]1C (stereo not given in full) |  |  |  |  | > 0.00772 | > 0.00772 | > 0.00772 | > 0.00772 | > 0.00772 | > 0.00772 | 
17 | COc1cc(C2(C)SCCCS2)c(I)c(OC)c1OC |  | > 100 |  | > 100 | > 100 | > 100 | > 100 | > 100 | > 100 | > 100 | > 100
18 | Oc1ccc2ccccc2c1OCc1nnc(CCCCCCCCc2nnc(COc3c(O)ccc4ccccc34)o2)o1 | > 100 | > 100 | > 100 | > 100 | > 100 | > 100 | > 100 |  | > 100 | > 100 | 
